Data: patent US10472341B2, “Bicyclic tetrahydrothiazepine derivatives useful for the treatment of neoplastic and/or infectious diseases” (APEIRON BIOLOGICS AG, priority 2015, dated 2019)
Where two headings read alike, the source gives them in different places.

Legend:
[1] = tested on: aCD3/aCD28-stimulated human CD4+-T-cells; test: IL-2 production and activation markers in aCD3/aCD28 stimulated isolated human CD4+-T-cells; format: cell-based; conditions: IL-2 production at 3 μM compound
Description: • Buffy coat content was transferred to sterile plastic bottle and filled up to 480 ml with PBS, and distributed equally to 16×50 ml tubes (30 ml/tube) • Underlayed with ˜11 ml Lymphoprep and centrifuged 20 min (2200 rpm) • The interphase containing lymphocytes was taken off with transfer pipette, cells were washed twice with PBS and pooled to one tube to determine cell count (Coulter Diff ACT) Isolation of Immune Cell Subfractions from PBMCs by MACS • PBMCs were resuspended in MACS buffer (80 μl MACS-buffer/10^7 cells) and cells were isolated with Auto-MACS device using respective kits following manufacturer's recommendations TCR Stimulation and Measurement of T Cell Activation
Isolated T cells were plated in Xvivo medium at 1.5*10 ^5 cells per in 96 well culture plates and TCR-stimulated with anti-CD3/28 mAbs in the presence of compound as indicated. Cytokine production was determined at 24 h or 48 h following TCR stimulation in cell culture supernatants using commercially available ELISA kits (BD and eBioscience) as recommended by the manufacturer. T cell proliferation and CD25 expression (CD25-PC5 reagent purchased from Beckman Coulter) was determined by flow cytometry (Beckman-Coulter FC500) and analysed with Kaluza Software. For measurement of CD69 expression, isolated CD4 and CD8 T cells were plated in Xvivo medium at […] per in 96 well culture plates and TCR-stimulated with anti-CD3/28 mAbs in the presence of compound. CD69 expression was determined at 24 h following TCR stimulation by flow cytometry (CD4eF450, CD8APCeF780 and CD69-PC7 reagent purchased from eBioscience) and analysed with Kaluza Software.
Buffy coats were obtained from Austrian Red Cross, diluted 3 fold with PBS and layered onto an isotonic Ficoll separating solution d=1.077 g/m in 50 ml centrifuge tubes. The tubes were centrifuged at 914 g for 25 min at room temperature with the brakes off. The PBMC layer was removed and washed twice with ice-cold PBS. CD4 T cells were isolated using CD4 microbeads (Milteny) and the AutoMACS device following manufacturer's instructions.
Compound examples of the present invention were classified according to the following activity criteria and are listed in Table 4a: • Activity Class A: IL-2 production at 3 μM compound concentration >10 ng/mL • Activity Class B: IL-2 production at 3 μM compound concentration between 2-10 ng/mL • Activity Class C: IL-2 production at 3 μM compound concentration between 2-fold increase as compared to mean IL-2 production of stimulated cells in the absence of compounds and <2 ng/mL

[2] = tested on: aCD3/aCD28-stimulated human PBMCs; test: Cytokine production in aCD3/aCD28 stimulated human PBMCs; format: cell-based; conditions: PBMC, 18 h
Description: In order to determine the immune modulatory effect of compounds of compounds of the present invention in human PBMCs, compounds were assessed in the following assay set-up:
Buffy coats were obtained from a local hospital, diluted 3 fold with PBS and layered onto an isotonic Ficoll separating solution d=1.077 g/mL in 50 mL centrifuge tubes. The tubes were centrifuged at 914 g for 25 min at room temperature with the brakes off. The PBMC layer was removed and washed twice with ice-cold PBS. Erythrocytes were lysed by addition of ddH2O and cells were resuspended in X-Vivo15 (Lonza).
1e6 cells/mL were stimulated with soluble anti CD3/CD28 antibodies (1 μg/mL both, clones OKT3 and 28.2) in the presence of described compounds. Cells were incubated for 18 h at 37° C., 5% CO2. Assay plates were centrifuged at 400 g for 5 min and supernatants harvested. Cytokine concentration in tissue culture supernatants were determined with MSD or HTRF kits (MSD and Cisbio), according to manufacturer's instructions.

[3] = enhancement of IFN-γ production, read-out: Activity Class IFN-γ
[4] = enhancement of IL-2 production, read-out: Activity Class IL-2

Structure (SMILES) | Activity Class CD4+ [1] | EC50 [2, 3] | EC50 [2, 4]
CCCCCCCNC(=O)c1cc2c(cc1F)S(=O)(=O)C[C@H](N)C(=O)N2Cc1ccc(Cl)cc1.Cl [Example 104, (3R)-3-amino-5-[(4-chlorophenyl)methyl]-8-fluoro-N-heptyl-1,1,4-trioxo-2,3,4,5-tetrahydro-1λ^6,5-benzothiazepine-7-carboxamide hydrochloride] | A (IL-2 production at 3 μM compound concentration >10 ng/mL) | < 1580 nM | < 1580 nM
COc1ccc([C@@H](C)NC(=O)c2ccc3c(c2)N(Cc2ccc(Cl)cc2)C(=O)[C@@H](N)CS3)cc1 [Example 27, (3R)-3-amino-5-[(4-chlorophenyl)methyl]-N-[(1R)-1-(4-methoxyphenyl)ethyl]-4-oxo-2,3,4,5-tetrahydro-1,5-benzothiazepine-7-carboxamide] | B (IL-2 production at 3 μM compound concentration between 2-10 ng/mL) | < 1580 nM | 1580 to 5010 nM
CC(C)CNNC(=O)c1ccc2c(c1)N(Cc1ccc(Cl)cc1)C(=O)[C@@H](N)CS2.Cl [Example 65, (3R)-3-amino-5-[(4-chlorophenyl)methyl]-N′-(2-methylpropyl)-4-oxo-2,3,4,5-tetrahydro-1,5-benzothiazepine-7-carbohydrazide hydrochloride] | C (IL-2 production at 3 μM compound concentration between 2-fold increase as compared to mean IL-2 production of stimulated cells in the absence of compounds and <2 ng/mL) | 1580 to 5010 nM | 1580 to 5010 nM
Cl.N[C@H]1CS(=O)(=O)c2cc(F)c(C(=O)NOc3ccccc3)cc2N(Cc2ccc(Cl)cc2)C1=O [Example 76, (3R)-3-amino-5-[(4-chlorophenyl)methyl]-8-fluoro-1,1,4-trioxo-N-phenoxy-2,3,4,5-tetrahydro-1λ^6,5-benzothiazepine-7-carboxamide hydrochloride] | C (IL-2 production at 3 μM compound concentration between 2-fold increase as compared to mean IL-2 production of stimulated cells in the absence of compounds and <2 ng/mL) | – | –
CCCCNC(=O)c1ccc2c(c1)N(Cc1ccc(C(N)=O)cc1)C(=O)[C@@H](N)CS2.Cl [Example 47, (3R)-3-amino-N-butyl-5-[(4-carbamoylphenyl)methyl]-4-oxo-2,3,4,5-tetrahydro-1,5-benzothiazepine-7-carboxamide hydrochloride] | C (IL-2 production at 3 μM compound concentration between 2-fold increase as compared to mean IL-2 production of stimulated cells in the absence of compounds and <2 ng/mL) | – | –
Cl.N[C@H]1CS(=O)(=O)c2cc(F)c(C(=O)N[C@@H]3CC3(F)F)cc2N(Cc2ccc(Cl)cc2)C1=O (single isomer, unassigned) [Example 106] | B (IL-2 production at 3 μM compound concentration between 2-10 ng/mL) | – | –
COc1ccc(CNC(=O)c2cc3c(cc2F)SC[C@H](NCCCCCNC(=O)OC(C)(C)C)C(=O)N3Cc2ccc(Cl)cc2)cc1 [Example 115, tert-butyl N-(5-{[(3R)-5-[(4-chlorophenyl)methyl]-8-fluoro-7-{[(4-methoxyphenyl)methyl]carbamoyl}-4-oxo-2,3,4,5-tetrahydro-1,5-benzothiazepin-3-yl]amino}pentyl)carbamate] | C (IL-2 production at 3 μM compound concentration between 2-fold increase as compared to mean IL-2 production of stimulated cells in the absence of compounds and <2 ng/mL) | – | –
Cl.N[C@H]1CSc2cc(F)c(C(=O)NCc3ccccc3)cc2N(Cc2ccc(OC(F)(F)F)cc2)C1=O [Example 16, (3R)-3-amino-N-benzyl-8-fluoro-4-oxo-5-{[4-(trifluoromethoxy)phenyl]methyl}-2,3,4,5-tetrahydro-1,5-benzothiazepine-7-carboxamide hydrochloride] | B (IL-2 production at 3 μM compound concentration between 2-10 ng/mL) | – | –
CC(C)(C)ONC(=O)c1ccc2c(c1)N(Cc1ccc(Cl)cc1)C(=O)[C@@H](N)CS2(=O)=O.Cl [Example 97, (3R)-3-amino-N-(tert-butoxy)-5-[(4-chlorophenyl)methyl]-1,1,4-trioxo-2,3,4,5-tetrahydro-1λ^6,5-benzothiazepine-7-carboxamide hydrochloride] | C (IL-2 production at 3 μM compound concentration between 2-fold increase as compared to mean IL-2 production of stimulated cells in the absence of compounds and <2 ng/mL) | – | –
Cl.N[C@H]1CSc2cc(F)c(C(=O)NC3CCOCC3)cc2N(Cc2ccc(OC(F)(F)F)cc2)C1=O [Example 14, (3R)-3-amino-8-fluoro-N-(oxan-4-yl)-4-oxo-5-{[4-(trifluoromethoxy)phenyl]methyl}-2,3,4,5-tetrahydro-1,5-benzothiazepine-7-carboxamide hydrochloride] | C (IL-2 production at 3 μM compound concentration between 2-fold increase as compared to mean IL-2 production of stimulated cells in the absence of compounds and <2 ng/mL) | – | –
CCCONC(=O)c1ccc2c(c1)N(Cc1ccc(Cl)cc1)C(=O)[C@@H](N)CS2(=O)=O.Cl [Example 82, (3R)-3-amino-5-[(4-chlorophenyl)methyl]-1,1,4-trioxo-N-propoxy-2,3,4,5-tetrahydro-1λ^6,5-benzothiazepine-7-carboxamide hydrochloride] | C (IL-2 production at 3 μM compound concentration between 2-fold increase as compared to mean IL-2 production of stimulated cells in the absence of compounds and <2 ng/mL) | – | –
CC(C)NC(=O)c1cc2c(cc1F)SC[C@H](N)C(=O)N2Cc1ccc(OC(F)(F)F)cc1.Cl [Example 15, (3R)-3-amino-8-fluoro-4-oxo-N-(propan-2-yl)-5-{[4-(trifluoromethoxy)phenyl]-methyl}-2,3,4,5-tetrahydro-1,5-benzothiazepine-7-carboxamide hydrochloride] | B (IL-2 production at 3 μM compound concentration between 2-10 ng/mL) | – | –
CC(C)(C)c1cc(NC(=O)c2ccc3c(c2)N(Cc2ccc(Cl)cc2)C(=O)[C@@H](N)CS3)no1.Cl [Example 24, (3R)-3-amino-N-(5-tert-butyl-1,2-oxazol-3-yl)-5-[(4-chlorophenyl)methyl]-4-oxo-2,3,4,5-tetrahydro-1,5-benzothiazepine-7-carboxamide hydrochloride] | C (IL-2 production at 3 μM compound concentration between 2-fold increase as compared to mean IL-2 production of stimulated cells in the absence of compounds and <2 ng/mL) | – | –
Cl.N[C@H]1CS(=O)(=O)c2ccc(C(=O)NOC3CCCCC3)cc2N(Cc2ccc(Cl)cc2)C1=O [Example 90, (3R)-3-amino-5-[(4-chlorophenyl)methyl]-N-(cyclohexyloxy)-1,1,4-trioxo-2,3,4,5-tetrahydro-1λ^6,5-benzothiazepine-7-carboxamide hydrochloride] | A (IL-2 production at 3 μM compound concentration >10 ng/mL) | – | –
Cl.N[C@H]1CS(=O)(=O)c2ccc(C(=O)NOCC3CCCCC3)cc2N(Cc2ccc(Cl)cc2)C1=O [Example 91, (3R)-3-amino-5-[(4-chlorophenyl)methyl]-N-(cyclohexylmethoxy)-1,1,4-trioxo-2,3,4,5-tetrahydro-1λ^6,5-benzothiazepine-7-carboxamide hydrochloride] | B (IL-2 production at 3 μM compound concentration between 2-10 ng/mL) | – | –
